Data from patent US12629355B2, “Drug inhibitor against migration and invasion of cancer cells and methods of treating against metastasis of cancer cells” (HOWARD UNIVERSITY, priority 2019, dated 2026).

Key:
Format in all cases: cell-based
U251 cells = assay: Filipodia/lamellipodia development of TGF-induced cells on Matrigel, Giemsa stain (FIG. 2, FIG. 4)
Method: After incubation, media and matrigels were carefully removed and adherent cells were washed three times with 1×PBS; to visualize cells, cells were incubated with Giemsa Stain (Sigma-Aldrich) (1:20 with water) for 10 minutes, washed in water until no blue color rinsed out from the well images under a Zeiss Compound microscope.
It is shown in the FIG. 2 and FIG. 3 that 100 uM of SD 29-14 is effective in inhibiting the migration potential of the two different representative cancer cell lines, which establishes this drug as a candidate anti-metastasis drug for treating against cancers where a role of RACK1 upregulation is or has been shown in the metastasis process. There are many reviews on the RACK1 protein the cancer cell migration (e.g., Li and Xie, 2015; Duff and Long, 2017, among others).
(§1) Efficacy for inhibiting migration at a lower concentration of a representative compound was also investigated. Cancer cell lines were treated under conditions as used above for FIG. 2 and FIG. 3 but with both 10 μM and 100 μM SD29-14.

MCF-7 cells = assay: Filipodia/lamellipodia development of TGF-induced cells on Matrigel, Giemsa stain (FIG. 3, FIG. 5)
Method: About 1×10^5 Breast cancer cells (MCF-7) treated with DMSO or SD29-14 for 48 h were resuspended in serum free MEM media and were then plated on 1:6 diluted (with serum free media) matrigel (Basement membrane mimic) in the presence of Transforming Growth Factor (TGFbeta) which is a known inducer of EMT that lead to the migration-(Lamouille and Derynck (2009)), with DMSO or with SD29-14 and the cells were allowed to grow for 20 h on Matrigel. After incubation, media and matrigels were carefully removed and adherent cells were washed three times with 1×PBS; to visualize cells, cells were incubated with Giemsa Stain (Sigma-Aldrich) (1:20 with water) for 10 minutes, washed in water until no blue color rinsed out from the well images under a Zeiss Compound microscope.
as §1
The experimental methods, except for the different cell line, are essentially same as stated above as to FIG. 4.

[1] = tested on: RACK1 / LamB1 co-localization; assay: Co-localization of RACK1 with ECM protein LamB1, immunofluorescence (FIG. 11); conditions: U251 cells, TGFbeta1, 72 h
Excerpt: For effective migration, cell adhesion to the ECM is necessary and cell surface localized integrin molecules (alpha and beta) act as a link between the ECM and cell interior by acting as a receptor of the ECM proteins and linking ECM to the intracellular cytoskeleton complex. It is known that RACK1 acts as an integrin binding protein (Hermanto et al., 2002) and interaction between RACK1 and β1 integrin has been reported to mediate cancer cell invasion as reported in prostate cancer invasion and metastasis (Trerotola et al., 2012). RACK1 can promote tumor cell migration by using its scaffolding ability to bridge together different signaling proteins that integrate signaling from receptors cytoskeleton reorganization pathways. Laminin being a major ECM protein can therefor interact with integrins for cell adhesion and in this regard is expected to modulate by the RACK1 proteins scaffolding ability as discussed above. […] Lack of colocalization indicate that the link between the ECM proteins and intracellular cytoskeleton complex are interrupted and as such inhibiting this complex mediated migration signaling pathways.
As to FIG. 11, and methods of Immunofluorescence and confocal microscopy, U251 cells were grown to about 80% confluency in 12 well plate on glass cover slips and the cells were co-treated with the TGFb and indicated compounds for 72 h. […]

pY397-FAK = pY397-FAK expression, immunofluorescence (FIG. 14); conditions: MCF7 cells, 96 h, 5 ng/ml TGF-beta
Excerpt: As to FIGS. 14 and 15, in order to evaluate the effect of a representative compound (SD 29-14) as a drug for inducing functional inactivation of RACK1 on the FAK phosphorylation, the drug was used in testing with breast cancer cells (MCF7, FIG. 14) and with glioblastoma cancer cells (U251, FIG. 15). In this immunofluorescence experiment, the pY397-FAK expressing cells were stained with FITC tagged secondary antibody (green) and RACK1 was stained with TRITC tagged secondary antibody (red). Here 5 ng/ml TGFbeta was used to induce cell migration. […] As discussed above, without the pY397-FAK present, the connection between the ECM and cell interiors will be disrupted which will inhibit the cell's potential to migrate by initiating the cell's adhesion to the ECM.
As to FIGS. 14 and 15, and the methods, the immunofluorescence experiments are essentially same as described with reference to FIG. 9 with a slight modification in the duration of the drug treatment. The cancer cells (MCF7 or U251) were incubated with a drug (SD 29-14) or with DMSO (left panel) for 96 h in the presence of 5 ng/ml TGF-beta. After indicated incubation period, the cells were fixed and stained with antibody as described for FIG. 9 methods.

## Nn1c(S)nnc1-c1cc(Cl)cc(Cl)c1 [SD 29-14]
U251 cells; 10 μM, 72 h grown (FIG. 4)
  efficacy to inhibit filipodia and lamellipodia development: maintained
U251 cells; 100 uM, TGF on Matrigel, 48 h treated then 20 h on Matrigel
  filipodia and lamellipodia development: inhibition of the filipodia and lamellipodia development
MCF-7 cells; 10 μM, 72 h grown (FIG. 5)
  efficacy to inhibit filipodia and lamellipodia development: maintained
MCF-7 cells; 100 uM, TGF-beta on Matrigel, 48 h treated then 20 h on Matrigel
  filipodia and lamellipodia development: the development of both filipodia and lamellipodia was inhibited
[1]
  co-localization of RACK1 and Lamb1 at the cell surface: this interaction was absent
pY397-FAK
  expression of pY397-FAK at the cell protrusions: almost completely inhibited
